This note sets out measurements from patent US20230165251A1, “SUBSTITUTED TOLYL FUNGICIDES AND THEIR MIXTURES” (FMC Corporation, priority 2020, published 2023).

For one data set, the system named is Alternaria solani. As to the kind of experiment: Test F: preventive spray on tomato seedlings, tomato early blight. The format is in vivo. The source says:
(§1) General protocol for preparing test suspensions for Tests A-F: the test compounds were first dissolved in acetone in an amount equal to 3% of the final volume and then suspended at the desired concentration (in ppm) in acetone and purified water (50/50 mix by volume) containing 250 ppm of the surfactant PEG400 (polyhydric alcohol esters). The resulting test suspensions were then used in Tests A-F.
The test suspension was sprayed to the point of run-off on tomato seedlings. The following day the seedlings were inoculated with a spore suspension of Alternaria solani (the causal agent of tomato early blight) and incubated in a saturated atmosphere at 27° C. for 48 h, and then moved to a growth chamber at 20° C. for 3 days, after which time visual disease ratings were made.
(§2) A rating of 100 indicates 100% disease control and a rating of 0 indicates no disease control (relative to the controls). A dash (-) indicates the compound was not tested.

Data set [1] concerns Phakopsora pachyrhizi. As to the kind of experiment: Test G: Compound 41 or 63 alone and in mixtures on soybean seedlings, Asian soybean rust, Colby synergy. The format is in vivo. The settings on record: Phakopsora pachyrhizi, read-out: Test G Obsd; for pest or weed control at 0.403 ppm: Compound 63 0.403 ppm alone; for pest or weed control at 0.652 ppm: Compound 63 0.652 ppm alone. The source says:
The general protocol for preparing test compositions for TEST G was as follows: Compound 41, Compound 63, N-(2,2,2-trifluoroethyl)-2-[[4-[5-(trifluoromethyl)-1,2,4-oxadiazol-3-yl]phenyl]methyl]-4-oxazolecarboxamide (b54.11a), ethyl 1-[[4-[[(1Z)-2-ethoxy-3,3,3-trifluoro-1-propen-1-yl]oxy]phenyl]methyl]-1H-pyrazole-4-carboxylate (b54.11c), ethyl 1-[[4-[[2-(trifluoromethyl)-1,3-dioxolan-2-yl]methoxy]phenyl]methyl]-1H-pyrazole-4-carboxylate (b54.11d), azoxystrobin, benzovindiflupyr, bixafen, chlorothalonil, cyproconazole, epoxiconazole, fenpropidin, fenpropimorph, fluindapyr, flutriafol, fluxapyroxad, inpyrfluxam, picoxystrobin, prothioconazole, pydiflumetofen, tebuconazole and trifloxystrobin were obtained as unformulated, technical-grade materials. Copper hydroxide and mancozeb was obtained as a formulated product marketed under the trademarks KOCIDE 3000 and MANZATE, respectively. Unformulated materials were first dissolved in acetone and then suspended at the desired concentration (in ppm) in acetone and purified water (50/50 mix by volume) containing 250 ppm of the surfactant Trem® 014 (polyhydric alcohol esters). Formulated materials were dispersed in sufficient water to give the desired concentration, and neither organic solvent nor surfactant was added to the suspension. The resulting test mixtures were then used in TEST G. The tests were run on four individual plants and the results reported as the mean average of the four plants.
The presence of a synergistic effect between two active ingredients was established with the aid of the Colby equation (see Colby, S. R. “Calculating Synergistic and Antagonistic Responses of Herbicide Combinations”, Weeds, (1967), 15, 20-22):
Using the method of Colby, the presence of a synergistic interaction between two active ingredients is established by first calculating the predicted activity, p, of the mixture based on activities of the two components applied alone. If p is lower than the experimentally established effect, synergism has occurred. In the equation above, A is the fungicidal activity in percentage control of one component applied alone at rate x. The B term is the fungicidal activity in percentage control of the second component applied at rate y. The equation estimates p, the expected fungicidal activity of the mixture of A at rate x with B at rate y if their effects are strictly additive and no interaction has occurred.
The test mixture was sprayed to the point of run-off on soybean seedlings. The following day the seedlings were inoculated with a spore suspension of Phakopsora pachyrhizi (the causal agent of Asian soybean rust) and incubated in a saturated atmosphere at 22° C. for 24 h and then moved to a growth chamber at 22° C. for 8 days, after which time visual disease ratings were made.
Results for TEST G are given below in Tables B-1 through J-1 for Compound 41, and Tables B-2 through J-2 for Compound 63. Each table corresponds to a set of evaluations performed together at the same time. In each table, a rating of 100 indicates 100% disease control and a rating of 0 indicates no disease control (relative to the controls). Columns labeled “Obsd” indicate the average of results observed from test run on four individual plants. Columns labeled “Exp” indicate the expected value for each treatment mixture using the Colby equation.

Data set [2] relates to Puccinia recondita f. sp. tritici. In words: Test B: preventive spray on wheat seedlings, wheat leaf rust. It is filed as in vivo. The settings on record: for pest or weed control at 10 ppm: Puccinia recondita, 192 h, Rate 10 ppm, read-out: Test B disease control rating.
Description: as §1
The test solution was sprayed to the point of run-off on wheat seedlings. The following day the seedlings were inoculated with a spore suspension of Puccinia recondita f. sp. tritici (the causal agent of wheat leaf rust) and incubated in a saturated atmosphere at 20° C. for 24 h, and then moved to a growth chamber at 20° C. for 7 days, after which time disease ratings were made.
as §2

Data set [3] relates to Phakopsora pachyrhizi. As to the kind of experiment: Test D: preventive spray on soybean seedlings, Asian soybean rust. The format is in vivo. The settings on record: for pest or weed control at 10 ppm: Phakopsora pachyrhizi, 216 h, Rate 10 ppm, read-out: Test D disease control rating.
Description: as §1
The test solution was sprayed to the point of run-off on soybean seedlings. The following day the seedlings were inoculated with a spore suspension of Phakopsora pachyrhizi (the causal agent of Asian soybean rust) and incubated in a saturated atmosphere at 22° C. for 24 h and then moved to a growth chamber at 22° C. for 8 days, after which time visual disease ratings were made.
as §2

The subject of the next data set is Zymoseptoria tritici. As to the kind of experiment: Test A: preventive spray on wheat seedlings, wheat leaf blotch. It is filed as in vivo. The settings on record: Rate 250 ppm.
Description: as §1
The test solution was sprayed to the point of run-off on wheat seedlings. The following day the seedlings were inoculated with a spore suspension of Zymoseptoria tritici (the causal agent of wheat leaf blotch) and incubated in a saturated atmosphere at 24° C. for 48 h, and then moved to a growth chamber at 20° C. for 17 days, after which time disease ratings were made.
as §2

For data set [4], the system named is Blumeria graminis f. sp. tritici. As to the kind of experiment: Test C: preventive spray on wheat seedlings, wheat powdery mildew. The format is in vivo. The settings on record: Rate 250 ppm.
Description: as §1
The test suspension was sprayed to the point of run-off on wheat seedlings. The following day the seedlings were inoculated with a spore dust of Blumeria graminis f. sp. tritici, (also known as Erysiphe graminis f. sp. tritici, the causal agent of wheat powdery mildew) and incubated in a growth chamber at 20° C. for 8 days, after which time visual disease ratings were made.
as §2

The next data set relates to Botrytis cinerea. As to the kind of experiment: Test E: preventive spray on tomato seedlings, tomato Botrytis. The settings on record: Rate 250 ppm. It is filed as in vivo.
Description: as §1
The test suspension was sprayed to the point of run-off on tomato seedlings. The following day the seedlings were inoculated with a spore suspension of Botrytis cinerea (the causal agent of tomato Botrytis) and incubated in a saturated atmosphere at 20° C. for 48 h, and then moved to a growth chamber at 24° C. for 3 days, after which time visual disease ratings were made.
as §2

Like-named read-outs stand apart in the source and are kept apart here.

For the compound `COC(=O)NCc1cc(-c2ccn(-c3c(F)cc(C(C)C)cc3F)n2)ccc1C` [Compound 63, methyl N-[[5-[1-[2,6-difluoro-4-(1-methylethyl)phenyl]-1H-pyrazol-3-yl]-2-methylphenyl]methyl]carbamate], the “Test F disease control rating” value with Alternaria solani (Rate 10 ppm) amounted to 85%. In the data set with Phakopsora pachyrhizi [1] (Table B-2), the pest or weed control at 0.403 ppm worked out at 34% and the pest or weed control at 0.652 ppm came out at 68%. Further, in the data set on Phakopsora pachyrhizi [1] (Table C-2), the pest or weed control at 0.403 ppm was found to be 15% and the pest or weed control at 0.652 ppm was 46%.

The term melting point denotes the temperature of the solid-liquid transition. `CO/N=C(\C)c1cc(F)c(-n2ncc(-c3ccc(C)c(CNC(=O)OC)c3)n2)c(F)c1` [Compound 142, methyl (E)-N-[[5-[2-[2,6-difluoro-4-[1-(methoxyimino)ethyl]phenyl]-2H-1,2,3-triazol-4-yl]-2-methylphenyl]methyl]carbamate] showed a melting point of 104 to 108 °C. The pest or weed control at 10 ppm in data set [2] was 86%. Also, the pest or weed control at 10 ppm in the data set on Phakopsora pachyrhizi [3] was determined as 100%.

Regarding `COC(=O)NNc1cc(-c2ccn(-c3c(F)cc(Cl)cc3F)n2)ccc1C` [Compound 153], the melting point was in the range of 153 to 156 °C. Further, in data set [2], the pest or weed control at 10 ppm is 68%. The pest or weed control at 10 ppm in the data set with Phakopsora pachyrhizi [3] was 91%.

For `COC(=O)NCc1cc(-c2cn(-c3c(F)cc(F)cc3Cl)nn2)ccc1C` [compound 122], the “Test A disease control rating” value in the data set with Zymoseptoria tritici is given as 71%. For the same compound, the “Test B disease control rating” value in data set [2] (Rate 250 ppm) is recorded as 99%. For the same compound, the “Test C disease control rating” value in data set [4] came to 0%. For the same compound, in the data set on Phakopsora pachyrhizi [3] (Rate 250 ppm), the “Test D disease control rating” value is 100%. In the data set on Botrytis cinerea, the “Test E disease control rating” value is 0%. The “Test F disease control rating” value in the data set with Alternaria solani (Rate 250 ppm) stood at 0%.
